Data as given in patent US4804660A, “Ergot cyclic peptide alkaloids having a venotonizing effect, useful for treating orthostatic hypotension” (Sandoz Ltd., priority 1981, dated 1989).

Experiments:
rat = assay: apomorphine stereotypy test / stereotypy in the rat; assay type: in vivo; details: 30 mg/kg i.p.
Protocol: The compounds moreover induce stereotypy in the rat at a dose of about 30 mg/kg i.p.
and has a score. in the apomorphine stereotypy test of 15.7 at 30 mg/kg i.p .

rat brain = assay: carbon-14-2-deoxyglucose autoradiographic technique, local cerebral glucose utilisation; assay type: in vivo; details: 3 mg/kg i.p.
Protocol: Moreover the compounds increase the local cerebral glucose utilisation in the sensomotor cartex, e.g. Hippocampus, Nucleus habenula, Nucleus corpus gentcul . As indicated by the carbon-14-2-deoxyglucose autoradiographic technique with the rat brain on administration i.p. of from about 0.3 to about 30 mg/kg of the compounds [for method see e.g. L. Solokoff, Journal of Cerebral Blood Flow and Metabolism, 1981, (1), 7-36, H. E. Savaki et al. Brain Research 1982, 233, 347 and J. McCulloch et al. Journal of Cerebral Blood Flow and Metabolism 1981, 1, 133-136.

For “2-methyl-9,10-dihydro-9'-thia-α-ergocryptine”, the “score in the apomorphine stereotypy test” value (rat) was 15.7, the “increase in local cerebral glucose utilisation, Hippocampus” value (rat brain; Hippocampus) was “+2%” and the “increase in local cerebral glucose utilisation, Nucleus dors.corpus genicul.lat” value (rat brain; Nucleus dors.corpus genicul.lat) was “+25%”. The “increase in local cerebral glucose utilisation, Nucleus lateralis huberula” value (rat brain; Nucleus lateralis huberula) was “+22%”.
